Literature values as cited in patent US20070160542A1, “Methods and systems for the delivery of corticosteroids having an enhanced pharmacokinetic profile” (Verus Pharmaceuticals, Inc., priority 2005, published 2007).

SMILES: CCCC1O[C@@H]2C[C@H]3[C@@H]4CCC5=CC(=O)C=C[C@]5(C)[C@H]4[C@@H](O)C[C@]3(C)[C@]2(C(=O)CO)O1 (stereo partly drawn) [budesonide, (R,S)-11β,16α,17,21-tetrahydroxypregna-1,4-diene-3,20-dione cyclic 16,17-acetal with butyraldehyde]
- solubility in alcohols: readily soluble
- solubility in water: virtually insoluble
